The text below walks through data of patent US9499502B2, “5-substituted iminothiazines and their mono- and dioxides as BACE inhibitors, compositions, and their use” (Merck Sharp & Dohme Corp., priority 2011, dated 2016).

Chain of purified human autoBACE-2 (Q9Y5Z0 63-473): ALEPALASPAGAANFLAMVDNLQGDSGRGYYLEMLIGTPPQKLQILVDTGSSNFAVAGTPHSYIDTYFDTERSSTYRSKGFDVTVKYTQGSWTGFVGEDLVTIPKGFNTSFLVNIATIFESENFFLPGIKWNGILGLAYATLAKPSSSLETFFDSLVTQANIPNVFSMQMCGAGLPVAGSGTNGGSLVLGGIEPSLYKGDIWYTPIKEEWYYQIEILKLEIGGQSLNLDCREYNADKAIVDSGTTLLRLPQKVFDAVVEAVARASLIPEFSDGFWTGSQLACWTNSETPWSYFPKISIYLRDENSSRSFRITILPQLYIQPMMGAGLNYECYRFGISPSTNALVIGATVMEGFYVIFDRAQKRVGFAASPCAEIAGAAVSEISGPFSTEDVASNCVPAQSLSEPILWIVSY
Chain of soluble human BACE1 catalytic domain (P56817 75-416): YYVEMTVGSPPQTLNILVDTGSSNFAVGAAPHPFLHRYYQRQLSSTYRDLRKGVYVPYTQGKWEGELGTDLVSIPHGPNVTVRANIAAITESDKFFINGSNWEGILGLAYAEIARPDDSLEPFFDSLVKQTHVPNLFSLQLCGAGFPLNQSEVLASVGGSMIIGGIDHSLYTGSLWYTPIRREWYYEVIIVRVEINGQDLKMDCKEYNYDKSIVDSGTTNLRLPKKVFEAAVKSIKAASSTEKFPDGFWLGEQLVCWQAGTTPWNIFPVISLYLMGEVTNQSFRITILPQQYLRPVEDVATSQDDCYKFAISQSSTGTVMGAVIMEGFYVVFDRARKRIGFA

In the first assay the target is purified human autoBACE-2 (Homo sapiens (Human), UniProt Q9Y5Z0). The assay can be described thus: BACE-2 Assay (BACE-HTRF assay). The settings on record: Ki calculated from IC50 using the Cheng-Prusoff equation; read-out: BACE2 Ki. The format is biochemical. A digest of the protocol:
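Endpoint proteolysis of a QSY7/europium FRET peptide by purified human autoBACE-2, 5% DMSO final, read by time-resolved fluorescence at 620 nm after 320 nm excitation.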
In general, Ki refers to the equilibrium dissociation constant of an inhibitor or competing ligand from its target. `CC1(C)C(=N)N[C@](C)(c2cc(NC(=O)c3ccc(Cl)cc3)cc(F)c2F)CS1(=O)=O` [Example 9bi]: the Ki was 9 nM.

As to `CC1(C)C(=N)N[C@](C)(c2cc(NC(=O)c3ccc(C(F)(F)F)cn3)cc(F)c2F)CS1(=O)=O` [Example 9bf], the Ki was 11 nM.

Take `C[C@@]1(C2CCC2)C(=N)N[C@](C)(c2cc(NC(=O)c3ccc(C(F)(F)F)cn3)ccc2F)CS1(=O)=O` [Example 9dz-b]: the Ki was 101 to 700 nM.

In the case of `CC1(C)C(=N)N[C@](C)(c2cc(Nc3noc4cc(F)cnc34)ccc2F)CS1(=O)=O` [Example 30b], the Ki was 5 nM.

As to `C[C@@]1(c2ccccn2)C(=N)N[C@](C)(c2cc(NC(=O)c3ccc(F)cn3)ccc2F)CS1(=O)=O` [Example 9cv-b], the Ki is 11 to 100 nM.

Regarding `CC1(C)C(=N)N[C@](C)(c2cc(NC(=O)c3ccno3)ccc2F)CS1(=O)=O` [Example 9ax], the Ki was 22 nM.

For the compound `COc1cnc(C(=O)Nc2ccc(F)c([C@]3(C)CS(=O)(=O)[C@](C)(C(C)C)C(=N)N3)c2)cn1` [Example 9ec-b], the Ki was 101 to 700 nM.

Regarding `COc1cnc(C(=O)Nc2cc(F)c(F)c([C@]3(C)CS(=O)(=O)C(C)(C)C(=N)N3)c2F)cn1` [Example 9ae], the inhibition constant (Ki) is 69 nM.

With `C[C@@]1(c2sc(-c3cccc(C#N)c3)cc2F)CS(=O)(=O)[C@@](C)(c2ccccc2F)C(=N)N1` [Example 27bs-a], the Ki is 9 nM.

A further assay concerns the target soluble human BACE1 catalytic domain (Homo sapiens (Human), UniProt P56817). As to the kind of experiment: BACE1 HTRF FRET Assay. The settings on record: read-out: BACE1 Ki.
Turning to `CC1(C)C(=N)N[C@](C)(c2cc(Nc3noc4cc(F)cnc34)ccc2F)CS1(=O)=O` [Example 30b], the inhibition constant (Ki) is 22 nM.

Consider `C[C@@]1(c2sc(-c3cccc(C#N)c3)cc2F)CS(=O)(=O)[C@@](C)(c2ccccc2F)C(=N)N1` [Example 27bs-a], for which the Ki is 68.3 nM.

The assay is the same for the next values; noted with them: read-out: BACE1 Ki; Ki calculated from IC50 using the Cheng-Prusoff equation.
For the compound `CC1(C)C(=N)N[C@](C)(c2cc(NC(=O)c3ccc(Cl)cc3)cc(F)c2F)CS1(=O)=O` [Example 9bi], the Ki was 22 nM.

In the case of `CC1(C)C(=N)N[C@](C)(c2cc(NC(=O)c3ccc(C(F)(F)F)cn3)cc(F)c2F)CS1(=O)=O` [Example 9bf], the Ki is 25 nM.

As for `C[C@@]1(C2CCC2)C(=N)N[C@](C)(c2cc(NC(=O)c3ccc(C(F)(F)F)cn3)ccc2F)CS1(=O)=O` [Example 9dz-b], the Ki was 123 nM.

As for `C[C@@]1(c2ccccn2)C(=N)N[C@](C)(c2cc(NC(=O)c3ccc(F)cn3)ccc2F)CS1(=O)=O` [Example 9cv-b], the Ki is 187 nM.

With `CC1(C)C(=N)N[C@](C)(c2cc(NC(=O)c3ccno3)ccc2F)CS1(=O)=O` [Example 9ax], the Ki was 82 nM.

Consider `COc1cnc(C(=O)Nc2ccc(F)c([C@]3(C)CS(=O)(=O)[C@](C)(C(C)C)C(=N)N3)c2)cn1` [Example 9ec-b], for which the Ki was 522 nM.

For the compound `COc1cnc(C(=O)Nc2cc(F)c(F)c([C@]3(C)CS(=O)(=O)C(C)(C)C(=N)N3)c2F)cn1` [Example 9ae], the inhibitory constant (Ki) is 45.4 nM.
